Experiments:
[1] = biological target: T1, JtRdhA (reductive dehalogenase) (Jhaorihella thermophila, UniProt A0A1H5TYU2); experiment: substrate turnover by purified enzyme, NADPH consumption and HPLC; type: biochemical
T1 construct: gene SAMN05421751_103106; full-length, N-terminal His-MBP-TEV fusion (JtRdhA^MBP), WP_104007082
T1 sequence (A0A1H5TYU2 1-1069): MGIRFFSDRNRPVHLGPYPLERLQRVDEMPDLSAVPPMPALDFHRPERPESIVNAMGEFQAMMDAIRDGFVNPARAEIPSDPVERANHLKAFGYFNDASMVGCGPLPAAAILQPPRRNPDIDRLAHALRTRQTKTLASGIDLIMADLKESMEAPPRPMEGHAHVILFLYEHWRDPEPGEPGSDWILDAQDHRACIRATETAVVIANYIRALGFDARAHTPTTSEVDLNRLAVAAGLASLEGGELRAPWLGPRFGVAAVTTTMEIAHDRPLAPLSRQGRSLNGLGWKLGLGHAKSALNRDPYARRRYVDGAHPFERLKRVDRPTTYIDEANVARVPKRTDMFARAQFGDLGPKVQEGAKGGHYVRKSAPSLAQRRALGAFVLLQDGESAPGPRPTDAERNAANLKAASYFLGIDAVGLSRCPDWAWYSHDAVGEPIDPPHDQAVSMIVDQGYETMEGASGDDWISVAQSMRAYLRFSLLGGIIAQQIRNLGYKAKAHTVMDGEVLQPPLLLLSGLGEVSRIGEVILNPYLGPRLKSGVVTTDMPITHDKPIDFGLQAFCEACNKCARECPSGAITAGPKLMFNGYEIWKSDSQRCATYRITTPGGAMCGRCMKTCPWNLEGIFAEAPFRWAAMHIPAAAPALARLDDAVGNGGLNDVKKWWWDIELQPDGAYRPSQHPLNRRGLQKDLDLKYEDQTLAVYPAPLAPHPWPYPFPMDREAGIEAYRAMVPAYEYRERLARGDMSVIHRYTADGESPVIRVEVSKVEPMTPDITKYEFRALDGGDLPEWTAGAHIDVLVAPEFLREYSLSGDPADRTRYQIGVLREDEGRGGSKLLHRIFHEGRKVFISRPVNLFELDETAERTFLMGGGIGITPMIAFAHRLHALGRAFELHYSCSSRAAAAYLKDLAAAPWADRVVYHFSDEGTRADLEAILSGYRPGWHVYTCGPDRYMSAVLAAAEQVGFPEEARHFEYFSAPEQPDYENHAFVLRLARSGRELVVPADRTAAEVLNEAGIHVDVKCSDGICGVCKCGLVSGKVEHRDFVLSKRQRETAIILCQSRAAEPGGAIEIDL

[2] = biological target: T1, JtRdhA (reductive dehalogenase); experiment: NADPH consumption assay, Dixon plot vs 35-DB-4-OH; type: biochemical
[3] = biological target: T1, JtRdhA (reductive dehalogenase); experiment: biphasic turnover assay, LC-MS of debrominated products; type: biochemical
[4] = substrate: O=C(O)c1ccc(O)c(Br)c1; experiment: steady-state kinetics by NADPH consumption (KM), purified enzyme; type: biochemical, Jhaorihella thermophila; conditions: cobalamin, 2x [4Fe-4S], [2Fe-2S], FMN
[5] = substrate: O=C(O)c1cc(Br)c(O)c(Br)c1; experiment: EPR of cob(II)alamin with substrate (Br superhyperfine coupling); KM from steady-state NADPH oxidation; type: biochemical, Jhaorihella thermophila; conditions: cobalamin, 2x [4Fe-4S], [2Fe-2S], FMN active site; displaces chloride, substrate bromine atoms less than […] Å from the Co2+ ion

Molecule: Oc1ccccc1I [2-Iodophenol, 2-iodophenol]
- NADPH consumption μM min^-1 [1]: 106 ± 3 µM/min

Molecule: O=C(O)c1cc(I)c(O)c(I)c1 [3,5 Diiodo-4-hydroxybenzoic acid]
- NADPH consumption μM min^-1 [1]: 124 ± 8 µM/min

Molecule: O=C(O)Cc1ccc(O)c(Br)c1 [3-bromo-4-hydroxyphenylacetic acid]
- NADPH consumption μM min^-1 [1]: 147 ± 3 µM/min

Molecule: O=C(O)c1cc(Cl)c(O)c(Cl)c1 [35-DC-4-OH, 3,5-dichloro-4-hydroxybenzoic acid]
- Ki [2]: 13.7 ± 3.6 µM

Molecule: CC(C)(c1cc(Br)c(O)c(Br)c1)c1cc(Br)c(O)c(Br)c1 [compound 1, tetrabromobisphenol A]
- biphasic turnover assay, LC-MS of debrominated products [3]: one of the most commonly used flame retardants TBBPA was determined to be a substrate for JtRdhA^MBP

B1: JtRdhA (reductive dehalogenase) (Jhaorihella thermophila) (protein)
chain: T1 sequence (A0A1H5TYU2 1-1069)
notes: full-length, N-terminal His-MBP-TEV fusion (JtRdhA^MBP), WP_104007082
- Km [4]: 21 ± 0.2 µM
- Km [5]: 19 ± 0.7 µM
